Reference: the supplement of paper PMC10307832

Assays:
Experiment in all cases: relative viability (nuclei count vs DMSO), 5 days (fraction); higher = more cells survive
A-427 = tested on: A-427
Outline: (§1)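 Lung cancer cell lines, seeded in 1536-well plates, were treated the following day by pin tool with a single drug or with five library-drug doses (not always all listed) in √10 steps on top of a fixed anchor-drug dose. Cells were fixed and nuclei stained in one step after 5 days, and nuclei were counted. Relative viability is the nuclei count for treated wells divided by that for vehicle wells, reported as medians of duplicate plates.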

CAL-12T = tested on: CAL-12T
Outline: as §1

COR-L 105 = tested on: COR-L 105
Outline: as §1

EPLC-272H = tested on: EPLC-272H
Outline: as §1

HCC-15 = tested on: HCC-15
Outline: as §1

HCC-44 = tested on: HCC-44
Outline: as §1

LC-2-ad = tested on: LC-2-ad
Outline: as §1

LCLC-97TM1 = tested on: LCLC-97TM1
Outline: as §1

NCI-H1395 = tested on: NCI-H1395
Outline: as §1

NCI-H1563 = tested on: NCI-H1563
Outline: as §1

NCI-H1734 = tested on: NCI-H1734
Outline: as §1

NCI-H1792 = tested on: NCI-H1792
Outline: as §1

NCI-H1915 = tested on: NCI-H1915
Outline: as §1

NCI-H1975 = tested on: NCI-H1975
Outline: as §1

NCI-H2023 = tested on: NCI-H2023
Outline: as §1

NCI-H2347 = tested on: NCI-H2347
Outline: as §1

NCI-H2405 = tested on: NCI-H2405
Outline: as §1

NCI-H520 = tested on: NCI-H520
Outline: as §1

NCI-H838 = tested on: NCI-H838
Outline: as §1

SW 1573 = tested on: SW 1573
Outline: as §1

UMC-11 = tested on: UMC-11
Outline: as §1

CCNC(=O)c1noc(-c2cc(C(C)C)c(O)cc2O)c1-c1ccc(CN2CCOCC2)cc1 [Luminespib] + CS(=O)(=O)CCNCc1ccc(-c2ccc3ncnc(Nc4ccc(OCc5cccc(F)c5)c(Cl)c4)c3c2)o1 [Lapatinib] (partner 2 µM)
relative viability (A-427; first compound 0.002 µM): 1.08 | relative viability (A-427; first compound 0.006325 µM): 1.02 | relative viability (A-427; first compound 0.02 µM): 0.771 | relative viability (A-427; first compound 0.06325 µM): 1.04 | relative viability (A-427; first compound 0.2 µM): 0.975 | relative viability (CAL-12T; first compound 0.002 µM): 0.596 | relative viability (CAL-12T; first compound 0.006325 µM): 0.644 | relative viability (CAL-12T; first compound 0.02 µM): 0.309 | relative viability (CAL-12T; first compound 0.06325 µM): 0.183 | relative viability (CAL-12T; first compound 0.2 µM): 0.158 | relative viability (COR-L 105; first compound 0.002 µM): 0.363 | relative viability (COR-L 105; first compound 0.006325 µM): 0.354 | relative viability (COR-L 105; first compound 0.02 µM): 0.283 | relative viability (COR-L 105; first compound 0.06325 µM): 0.266 | relative viability (COR-L 105; first compound 0.2 µM): 0.302 | relative viability (EPLC-272H; first compound 0.006325 µM): 0.861 | relative viability (EPLC-272H; first compound 0.02 µM): 0.563 | relative viability (EPLC-272H; first compound 0.06325 µM): 0.725 | relative viability (EPLC-272H; first compound 0.2 µM): 0.153 | relative viability (HCC-15; first compound 0.002 µM): 0.812 | relative viability (HCC-15; first compound 0.006325 µM): 0.783 | relative viability (HCC-15; first compound 0.02 µM): 0.883 | relative viability (HCC-15; first compound 0.06325 µM): 0.308 | relative viability (HCC-15; first compound 0.2 µM): 0.136 | relative viability (HCC-44; first compound 0.002 µM): 0.975 | relative viability (HCC-44; first compound 0.006325 µM): 1.08 | relative viability (HCC-44; first compound 0.02 µM): 1.18 | relative viability (HCC-44; first compound 0.06325 µM): 0.161 | relative viability (HCC-44; first compound 0.2 µM): 0.159 | relative viability (LC-2-ad; first compound 0.002 µM): 0.928 | relative viability (LC-2-ad; first compound 0.006325 µM): 0.954 | relative viability (LC-2-ad; first compound 0.02 µM): 0.659 | relative viability (LC-2-ad; first compound 0.06325 µM): 0.498 | relative viability (LC-2-ad; first compound 0.2 µM): 0.0905 | relative viability (LCLC-97TM1; first compound 0.002 µM): 1.33 | relative viability (LCLC-97TM1; first compound 0.006325 µM): 0.759 | relative viability (LCLC-97TM1; first compound 0.02 µM): 0.318 | relative viability (LCLC-97TM1; first compound 0.06325 µM): 0.197 | relative viability (LCLC-97TM1; first compound 0.2 µM): 0.139 | relative viability (NCI-H1395; first compound 0.002 µM): 1.04 | relative viability (NCI-H1395; first compound 0.006325 µM): 0.996 | relative viability (NCI-H1395; first compound 0.02 µM): 0.645 | relative viability (NCI-H1395; first compound 0.06325 µM): 0.336 | relative viability (NCI-H1395; first compound 0.2 µM): 0.347 | relative viability (NCI-H1563; first compound 0.002 µM): 0.963 | relative viability (NCI-H1563; first compound 0.006325 µM): 0.818 | relative viability (NCI-H1563; first compound 0.02 µM): 0.616 | relative viability (NCI-H1563; first compound 0.06325 µM): 0.474 | relative viability (NCI-H1563; first compound 0.2 µM): 0.528 | relative viability (NCI-H1734; first compound 0.002 µM): 1.08 | relative viability (NCI-H1734; first compound 0.006325 µM): 1 | relative viability (NCI-H1734; first compound 0.02 µM): 0.675 | relative viability (NCI-H1734; first compound 0.06325 µM): 0.123 | relative viability (NCI-H1734; first compound 0.2 µM): 0.132 | relative viability (NCI-H1792; first compound 0.002 µM): 0.855 | relative viability (NCI-H1792; first compound 0.006325 µM): 0.778 | relative viability (NCI-H1792; first compound 0.02 µM): 0.717 | relative viability (NCI-H1792; first compound 0.06325 µM): 0.474 | relative viability (NCI-H1792; first compound 0.2 µM): 0.587 | relative viability (NCI-H1915; first compound 0.002 µM): 0.943 | relative viability (NCI-H1915; first compound 0.006325 µM): 0.957 | relative viability (NCI-H1915; first compound 0.02 µM): 0.932 | relative viability (NCI-H1915; first compound 0.06325 µM): 0.99 | relative viability (NCI-H1915; first compound 0.2 µM): 0.284 | relative viability (NCI-H1975; first compound 0.002 µM): 0.951 | relative viability (NCI-H1975; first compound 0.006325 µM): 0.739 | relative viability (NCI-H1975; first compound 0.02 µM): 0.291 | relative viability (NCI-H1975; first compound 0.06325 µM): 0.126 | relative viability (NCI-H1975; first compound 0.2 µM): 0.113 | relative viability (NCI-H2023; first compound 0.002 µM): 0.866 | relative viability (NCI-H2023; first compound 0.006325 µM): 0.787 | relative viability (NCI-H2023; first compound 0.02 µM): 0.124 | relative viability (NCI-H2023; first compound 0.06325 µM): 0.0702 | relative viability (NCI-H2023; first compound 0.2 µM): 0.0724 | relative viability (NCI-H2347; first compound 0.002 µM): 0.941 | relative viability (NCI-H2347; first compound 0.02 µM): 0.876 | relative viability (NCI-H2347; first compound 0.06325 µM): 0.758 | relative viability (NCI-H2347; first compound 0.2 µM): 0.88 | relative viability (NCI-H2405; first compound 0.002 µM): 1.17 | relative viability (NCI-H2405; first compound 0.006325 µM): 0.876 | relative viability (NCI-H2405; first compound 0.02 µM): 0.869 | relative viability (NCI-H2405; first compound 0.06325 µM): 0.144 | relative viability (NCI-H2405; first compound 0.2 µM): 0.125 | relative viability (NCI-H520; first compound 0.002 µM): 0.848 | relative viability (NCI-H520; first compound 0.006325 µM): 0.792 | relative viability (NCI-H520; first compound 0.02 µM): 0.353 | relative viability (NCI-H520; first compound 0.06325 µM): 0.11 | relative viability (NCI-H520; first compound 0.2 µM): 0.138 | relative viability (NCI-H838; first compound 0.002 µM): 1.05 | relative viability (NCI-H838; first compound 0.006325 µM): 0.911 | relative viability (NCI-H838; first compound 0.02 µM): 0.328 | relative viability (NCI-H838; first compound 0.06325 µM): 0.103 | relative viability (NCI-H838; first compound 0.2 µM): 0.0976 | relative viability (SW 1573; first compound 0.002 µM): 1.2 | relative viability (SW 1573; first compound 0.006325 µM): 1.14 | relative viability (SW 1573; first compound 0.02 µM): 0.711 | relative viability (SW 1573; first compound 0.06325 µM): 0.439 | relative viability (SW 1573; first compound 0.2 µM): 0.127 | relative viability (UMC-11; first compound 0.002 µM): 0.85 | relative viability (UMC-11; first compound 0.006325 µM): 0.834 | relative viability (UMC-11; first compound 0.02 µM): 0.395 | relative viability (UMC-11; first compound 0.06325 µM): 0.345 | relative viability (UMC-11; first compound 0.2 µM): 0.125
